Measured values as given in article PMC7002685, “Inhibition of vascular calcification by inositol phosphates derivatized with ethylene glycol oligomers” (Nature Communications, 2020).

Tests used:
Histamine H1 = molecular target: T1, Histamine H1 (Homo sapiens, UniProt P35367); test: Off-target 239610; assay type: binding
T1 construct: purchased Eurofins Panlabs Discovery Services Taiwan, Ltd
Procedure: (§1) The potential off-target activity of 10 µM (OEG2)2-IP4 was assessed against a panel of 87 enzymes, receptors, or ion channels that are used in standard safety pharmacology screens.
(§2) 3.2. Off-target screening assay
The experiments were conducted by a contract research organization (Eurofins Panlabs Discovery Services Taiwan, Ltd.) and details on the respective assays can be retrieved via the catalog number provided in Supplementary Table 11 from the company’s webpage
(§3) (https://www.eurofinsdiscoveryservices.com/). […]
At sacrifice the left tibia of animals of the rat model with dietary adenine/high-phosphate-induced uremia and VC was collected, fixed with 70% v/v EtOH and embedded in methyl methacrylate. The trabecular bone compartment is known to be the most metabolic active i.e. actively re-structured bone compartment in CKD. Therefore, histomorphometric and micro-computed tomography (µCT) analysis of bone was performed on the trabecular compartment. Tibial sections were Goldner-stained for histomorphometric analysis of the proximal metaphysis using the AxioVision Release 4.5 software, as […]
described previously5. […]

Glutamate, Kainate = test: Off-target 232710; assay type: binding, Rat; conditions: 10 µM
Procedure: as §1, §2
(§4) The experiments were conducted by a contract research organization (Eurofins Panlabs Discovery
(§5) Services Taiwan, Ltd.) and details on the respective assays can be retrieved via the catalog number
(§6) provided in Supplementary Table 11 from the company’s webpage
as §3

Chemokine CCR1 = molecular target: T2, Chemokine CCR1 (Homo sapiens, UniProt P32246); test: Off-target 217510; assay type: binding
T2 construct: purchased Eurofins Panlabs Discovery Services Taiwan, Ltd
T2 sequence (P32246 whole entry): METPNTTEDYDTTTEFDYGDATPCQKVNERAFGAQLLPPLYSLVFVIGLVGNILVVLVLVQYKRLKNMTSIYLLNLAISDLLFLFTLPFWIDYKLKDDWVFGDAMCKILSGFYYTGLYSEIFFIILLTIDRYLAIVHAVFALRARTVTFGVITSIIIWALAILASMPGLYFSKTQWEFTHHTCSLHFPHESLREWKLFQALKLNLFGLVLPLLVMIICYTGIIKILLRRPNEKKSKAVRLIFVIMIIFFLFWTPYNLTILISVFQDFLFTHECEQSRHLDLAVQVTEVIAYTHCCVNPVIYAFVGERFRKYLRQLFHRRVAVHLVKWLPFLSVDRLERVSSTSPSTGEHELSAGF
Procedure: as §1, §2, §4, §5, §6, §3

vascular calcification = test: Adenine and high-phosphate-diet-induced rat model of VC; assay type: in vivo, male Wistar rats
Procedure: Uremia increases the risk for developing VC. Therefore, the effect of (OEG2)2-IP4 on the development of VC was investigated in a previously established adenine and high-phosphate-diet-induced rat model of VC that results in uremia and chronic renal failure. […] (OEG2)2-IP4 was administered via a s.c.-implanted osmotic pump at doses of 5, 15, or 50 mg/kg/day for 4 weeks, and treatment was initiated 1 week after the start of adenine supplementation. […] Animals in this model developed severe CKD (Supplementary Fig. 20), which was accompanied by substantial weight loss (Supplementary Fig. 21). No significant difference in the level of renal failure and body weight loss was observed between the different treatment groups, with the exception of creatinine at week 3 and serum phosphate at sacrifice in the 15 mg/kg/day group (Supplementary Fig. 20).
The inhibitory effect of (OEG2)2-IP4 on heart calcifications was significant starting at 15 mg/kg/day (Fig. 6b). The compound’s activity was also evident following von Kossa staining (Fig. 6c) on the thoracic part of the aorta, and quantification of the von Kossa-positive area (Fig. 6d). […] In the femoral artery, reduction in bulk calcium was insignificant for all tested groups, likely due to the low level of calcification detected in the vehicle control (Fig. 6f, Supplementary Table 9).
Male Wistar rats (Charles River) were housed two per cage with free access to water and standard chow and submitted to a 12-h light/dark cycle. Compounds were administered and doses calculated using the salt form. Animals were randomly assigned to four groups of 12 animals each and given a high-phosphate (1.03%) diet for 2 weeks before starting a special diet to initiate uremia. Uremia/VC was induced in all animals by freely fed diet containing high-phosphate (0.92%), low-protein (2.5% instead of 19%), and adenine (0.75%) for 4 weeks. The diet was again switched to a high-phosphate (1.03%) diet for 1 week, after which rats were sacrificed.
The first group was treated with vehicle (double distilled (d.d.) water), the second, third, and fourth groups were treated with daily doses equivalent of 5, 15, and 50 mg/kg of (OEG2)2-IP4, respectively, in 2 mL d.d. water starting 1 week after the administration of the adenine diet. Compounds were delivered continuously for 4 weeks via osmotic pumps (type 2ML4; Alzet, Cupertino, CA, USA) implanted subcutaneously under anesthesia 1 week after the start of the adenine diet. Blood sampling for serum and plasma at baseline, week 1, and week 3 was performed in restrained, conscious animals. […] Serum samples were analyzed for creatinine according to the Jaffe method, calcium (using flame atomic absorption spectrometry[74]), and phosphate (DiaSys Diagnostic Systems, Holzheim, Germany) concentrations. In serum samples taken at sacrifice, the CPP-associated calcium was quantified by calculating the difference between total serum calcium (measured in serum supernatants after centrifugation at 3000 × g, RT, 15 min) and serum calcium after removing CPPs by centrifugation (16,000 × g and 4 °C for 120 min)[26]. In addition, serum aliquots were centrifuged (10,000 × g, 4 °C, 30 min) and T50’s were determined as described above. CPP size was monitored by hourly DLS measurements at 37 °C, after spiking cleared serum samples with calcium (10 mM) and phosphate (6 mM), for a total of 8 h[29].
At sacrifice, the heart, the abdominal aorta, left carotids, and femoral arteries were collected. The presence of calcification in each animal was evaluated on paraffin-embedded, von Kossa stained sections of the thoracic aorta (as described previously[74]), as well as by measurement of the total calcium content in the heart and vascular tissue samples by flame atomic absorption spectrometry.

T1 sequence (P35367 whole entry): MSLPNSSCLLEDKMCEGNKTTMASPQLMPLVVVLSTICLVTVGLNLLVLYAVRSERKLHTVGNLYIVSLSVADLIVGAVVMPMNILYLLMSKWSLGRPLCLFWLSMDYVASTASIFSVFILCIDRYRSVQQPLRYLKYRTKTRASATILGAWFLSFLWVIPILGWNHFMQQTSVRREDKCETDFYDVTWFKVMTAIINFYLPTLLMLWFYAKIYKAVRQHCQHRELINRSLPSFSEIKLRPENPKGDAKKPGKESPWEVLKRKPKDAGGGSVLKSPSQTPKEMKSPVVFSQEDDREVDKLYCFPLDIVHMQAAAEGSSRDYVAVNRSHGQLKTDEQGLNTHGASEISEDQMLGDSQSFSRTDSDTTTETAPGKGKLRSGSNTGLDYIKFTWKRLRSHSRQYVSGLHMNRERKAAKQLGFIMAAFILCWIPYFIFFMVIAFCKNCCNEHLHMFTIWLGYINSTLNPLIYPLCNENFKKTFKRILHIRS

`COCCOCCO[C@@H]1[C@@H](OP(=O)(O)O)[C@H](OCCOCCOC)[C@@H](OP(=O)(O)O)[C@@H](OP(=O)(O)O)[C@H]1OP(=O)(O)O` [(OEG2)2-IP4, 4,6-Di-O-(methoxy-diethyleneglycol)-myo-inositol-1,2,3,5-tetrakis(phosphate)] was tested, and the inhibition at 10 µM (Histamine H1) was 4%, the “% Inhibition” value (Glutamate, Kainate) was 17% and the inhibition at 10 µM (Chemokine CCR1) was -2%. The “Calcium, A. abdominialis” value (vascular calcification; 5 mg/kg/day) was 12.71 ± 11.66 mg/g tissue, the “Calcium, A. carotis” value (vascular calcification; 5 mg/kg/day) was 11.06 ± 9.10 mg/g tissue and the “Calcium, A. femoralis” value (vascular calcification; 5 mg/kg/day) was 4.47 ± 3.95 mg/g tissue. For the same compound, the “Calcium, Heart” value (vascular calcification; 5 mg/kg/day) was 0.05 ± 0.03 mg/g tissue, the “Von Kossa positive area in the aorta thoracalis” value (from here on “Von Kossa positive area”) (vascular calcification; 5 mg/kg/day) was 17.86 ± 12.46% and the “Mortality (animals)” value (vascular calcification; 5 mg/kg/day, s.c. osmotic pump, 4 weeks) was 0/12. The “Calcium, A. abdominialis” value (vascular calcification; 15 mg/kg/day) was 6.24 ± 3.70 mg/g tissue, the “Calcium, A. carotis” value (vascular calcification; 15 mg/kg/day) was 5.07 ± 6.23 mg/g tissue and the “Calcium, A. femoralis” value (vascular calcification; 15 mg/kg/day) was 4.14 ± 1.92 mg/g tissue. For the same compound, the “Calcium, Heart” value (vascular calcification; 15 mg/kg/day) was 0.04 ± 0.01 mg/g tissue, the “Mortality (animals)” value (vascular calcification; 15 mg/kg/day) was 1/12 and the “Von Kossa positive area” value (vascular calcification; 15 mg/kg/day) was 14.35 ± 11.49%. For the same compound, the “Calcium, A. abdominialis” value (vascular calcification; 50 mg/kg/day) was 1.69 ± 1.80 mg/g tissue, the “Calcium, A. carotis” value (vascular calcification; 50 mg/kg/day) was 0.84 ± 1.11 mg/g tissue and the “Calcium, A. femoralis” value (vascular calcification; 50 mg/kg/day) was 2.01 ± 1.41 mg/g tissue. For the same compound, the “Calcium, Heart” value (vascular calcification; 50 mg/kg/day) was 0.04 ± 0.02 mg/g tissue, the “Mortality (animals)” value (vascular calcification; 50 mg/kg/day) was 1/12 and the “Von Kossa positive area” value (vascular calcification; 50 mg/kg/day) was 2.72 ± 5.97%. The “calcification in the carotid artery compared to the 5 and 15 mg/kg/day groups” value (vascular calcification; 50 mg/kg/day) was “prevented calcification in the carotid artery”, the “calcemic status of the animals” value (vascular calcification; 50 mg/kg/day for 4 weeks) was “not influenced” and the “bulk calcium in the abdominal aorta compared to vehicle” value (vascular calcification; 5, 15, 50 mg/kg/day) was “trend in a dose-dependent reduction of bulk calcium”. The “reduction in bulk calcium in the femoral artery” value (vascular calcification; all tested groups) was “insignificant” and the “dose from which inhibitory effect on heart calcifications was significant” value (vascular calcification; rat, in vivo) was no less than 15 mg/kg/day.
